Read-outs that look alike come from different tables or passages of the source.
Tests used:
[1] = system: human platelet-rich plasma; test: Collagen-induced platelet aggregation in human platelet-rich plasma; format: cell-based
Method: (§1) Human platelet suspension (PS) was prepared according to the method described previously. Briefly, blood sample, freshly obtained from healthy volunteers who had taken no medications during the preceding 2 weeks, was treated with acid citrate/dextrose (ACD) in a volume ratio of 9:1. After centrifugation at 120 g, 25° C. for 9 min, platelet-rich plasma was transferred into another plastic tube and incubated with heparin (6.4 U/ml) as well as prostaglandin E1 (1 μM). Platelets were spun down by centrifugation at 500 g, 25° C. for 8 min and subsequently washed two times with Tyrode solution (NaH2PO4 0.4 mM; NaCl 136.9 mM; KCl […]; NaHCO3 11.9 mM; CaCl2 2 mM; MgCl2 2.1 mM; glucose 11.1 mM; BSA 3.5 mg/ml; pH 7.35-7.4). The washed platelets were finally suspended in Tyrode's solution and the platelet count was adjusted to 3.75×10^8 platelets/ml. For platelet-rich plasma (PRP) preparation, whole blood was anticoagulated with 1/10 vol of sodium citrate (3.8%, w/v) and centrifuged at 150 g, 25° C. for 9 min.
(§2) Platelet aggregation was measured turbidimetrically with a Lumi-aggregometer (Payton Scientific) at 37° C. under stirring condition (900 rpm). Platelet suspensions were prewarmed to 37° C. for 2 min in a silicone-treated glass cuvette. Nstpbp5185 was added 3 min before the addition of platelet-aggregation inducers. The extent of platelet aggregation was determined by recording the increase of light transmission relative to that of control (maximal aggregation, as 100%) for 6 min after the addition of inducer. The final volume and platelet count for measuring platelet aggregation were 500 μl and 3×10^8/ml, respectively.

[2] = system: human platelet suspension; test: Arachidonic acid-induced platelet aggregation in human platelet suspension; format: cell-based; conditions: AA 200 μM
Method: as §1, §2

[3] = system: mesenteric venules of mice; test: Fluorescein sodium-induced platelet thrombus formation in mesenteric venules of mice; format: in vivo; conditions: for average time to occlusion (TTO): 10 μg/g i.v., mice; for occlusion time: i.v., 5 min after administration
Method: A modification of the method was used. Male ICR mice (12-14 g) were anesthetized with sodium pentobarbital (50 mg/kg, i.p.). […] Five min later, various doses of nstpbp5185 (2 and 4 μg/g), aspirin (150 and 250 μg/g), or DMSO (control) were administered by i.v. through other lateral tail vein. The injected volume of the nstpbp5185, aspirin, or DMSO (control) was smaller than 10 μl. A segment of the small intestine with its mesentery attached was exteriorized through a midline incision on the abdominal wall and placed onto a transparent plastic plate for microscopic observation. Frequent rinsing of the mesentery with warm isotonic saline kept at 37° C. was performed to prevent the mesentery from drying out. Microvessels in the mesentery were observed under transillumination from a halogen lamp. Venules with diameters of 30-40 μm were selected to be irradiated to produce a microthrombus. In the epi-illumination system, light from a 100-W mercury lamp was filtered through a filter (B-2A, Nikon, Tokyo, Japan) with a dichromic mirror (DM 510, Nikon). The filtered light eliminated wavelengths below 520 nm irradiated a microvessel through an objective lens (20×). The area of irradiation was about 100 μm in diameter on the focal plane. Ten minutes after administration of the dye, the irradiation by filtered light and a timer were simultaneously started, and thrombus formation was observed on a TV-monitor. Occlusion time was recorded as the time interval for inducing thrombus formation leading to cessation of blood flow.
After giving 50 μg/g fluorescein sodium, the irradiation of mesenteric venules induced thrombus formation which is consist of activated platelets and fibrin clots. […] In the vehicle-treated group, the average TTO was approximately 143.71±4.99 sec (n=17). The group pre-treated with compound 5185 (10 μg/g), the average TTO value was 208.67±6.99 sec (n=12).

[4] = system: human platelets; test: Flow cytometric analysis of P-selectin expression; format: cell-based; conditions: for U46619-induced P-selectin expression: U46619 1 μM; for collagen-induced P-selectin expression: collagen 10 μg/ml
Method: […] Then the sample was further incubated with FITC-labeled anti-CD62P in the dark at room temperature. Prior to analysis, the volume was adjusted to 1 mL/tube with Tyrode's solution. The suspensions were immediately assayed by fluorescence activated cell sorter (Becton-Dickinson, FACScan System, San Joe, Calif.) using excitation and emission wavelength of 488 and 525 nm, respectively. Data were collected from 10000 platelets per experimental group. The level of P-selectin expression was expressed as mean fluorescence intensity.

[5] = system: mice; test: Pulmonary thromboembolism caused by collagen/epinephrine; format: in vivo; conditions: for survival rate after 1 day: n=4
Method: (A) Mice were i.v. injected with vehicle (DMSO as control), nstpbp5185 (10 μg/g) or Ctkf6f2 (10 μg/g), then injected with collagen/epinephrine to induce pulmonary embolism model. After the onset of respiratory arrest, lungs were excised. […] Histologic analysis was performed on H&E-stained sections of lung from each mouse. […] (B) Survival rate of mice injected with DMSO as control, nstpbp5185 (10 μg/g) or Ctkf6f2 (10 μg/g) after induction of pulmonary thromboembolism in 30 min, 1 hr and 24 hr (n=4). (C) Representative images of lung isolated after the onset of respiratory arrest, but while the heart was still beating, 0.5 ml of Evans blue solution was injected into the heart. Lungs were excised, and photographed.
Male mice (ICR, 25±3 g) received collagen (0.6 μg/g) plus epinephrine (0.2 μg/g) by tail vein injection. While the respiration is very weak and the heart was still beating, 0.5 mL of Evans blue solution (1% in saline; Sigma) was injected into the heart. Lungs were excised, photographed and fixed with paraldehyde, embedded into paraffin, and sectioned. Histological analysis was performed on hematoxylin and eosin-stained (H&E) sections of lung from each mouse. Nstpbp5185 (10 μg/g) or DMSO vehicle was intravenously given prior to collagen/epinephrine. Mortality after challenge was calculated as percentage of death after injection of collagen/epinephrine, the end time will be […].

[6] = system: human platelets; test: Platelet [Ca2+]i mobilization by Fura 2-AM fluorescence; format: cell-based; conditions: for collagen-evoked increase of [Ca2+]i: collagen 10 μg/ml, Fura-2-loaded platelets
Method: After centrifugating platelet-rich plasma at 500 g, 25° C. for 8 min, isolated platelets were resuspended in Ca^2+-free Tyrode solution. The platelet suspensions were protected from light and incubated with Fura 2-AM (5 μM) at 37° C. for 30 min. Human platelets were then prepared as described previously. The washed platelet count was adjusted to 3-4.5×10^8 platelets/ml. Finally, the external Ca^2+ concentration of the platelet suspensions was adjusted to 1 mM. The rise in [Ca^2+]i was measured using a fluorescence spectrophotometer (CAF 110, Jasco, Japan) at excitation wavelengths of 340 and 380 nm, and an emission wavelength of 500 nm. [Ca^2+]i was calculated from the fluorescence, using 224 nM as the Ca^2+-Fura 2 dissociation constant.

[7] = system: human platelet suspension; test: Collagen-induced platelet aggregation in human platelet suspension; format: cell-based; conditions: collagen 10 μg/ml; for IC50: Platelet, washed human platelets, read-out: IC50 collagen-induced platelet aggregation in human PS
Method: as §1, §2

Row | SMILES | IC50 ([1]; Homo sapiens, collagen 5 μg/ml, read-out: IC50 collagen-induced aggregation in platelet-rich plasma) | IC50 [2] | average time to occlusion (TTO) [3] | U46619-induced P-selectin expression [4] | collagen-induced P-selectin expression [4] | emboli in lung sections compared with 5185 ([5]; 10 μg/g i.v.) | survival rate after 1 day ([5]; 10 μg/g i.v.) | U46619-induced calcium mobilization ([6]; U46619 1 μM, 1 μM-3 μM compound) | collagen-evoked increase of [Ca2+]i [6] | IC50 [7] | IC50 ([1]; human PRP, data not shown, read-out: IC50 collagen-induced platelet aggregation in human PRP) | occlusion time within 70 min after administration ([3]; 4 μg g^−1 i.v.) | time until occlusion time returned to the control value ([3]; 4 μg g^−1 i.v.) | occlusion time ([3]; 4 μg/g) | occlusion time ([3]; first dose of 'respectively' (2 μg/g)) | mortality after collagen/epinephrine within 1 hr ([5]; 5 and 10 μg g^−1, intravenous injection) | microemboli in lung sections ([5]; nstpbp5185-treated mice vs control) | thrombin-evoked increase of [Ca2+]i ([6]; thrombin 0.1 U/ml, even at 60 μM) | % inhibition collagen ([7]; human platelet suspension, preliminary, compound concentration not given)
1 | Cc1ccc(-c2nc3ccc(F)cc3n2Cc2cccc(F)c2)o1 [Ctkf6f2, 6-fluoro-1-(3-fluorobenzyl)-2-(5-methyl-2-furyl)benzimidazole] | 31.3 ± 7.68 µM | 3.2 ± 0.99 µM | 267.93 ± 12.64 s | decreased | decreased | smaller emboli | 100% | markedly inhibited | concentration-dependently inhibited | 3400 ± 620 nM | – | – | – | – | – | – | – | – | –
2 | Cc1ccc(-c2nc3ccccc3n2Cc2ccccc2)o1 [Example 6, 1-Benzyl-2-(5-methyl-2-furyl)benzimidazole] | – | 3.9 ± 0.2 µM | 208.67 ± 6.99 s | significantly reduced | concentration-dependently reduced to baseline | – | 100% | – | markedly inhibited | ~1300 nM | 64.2 ± 2.5 µM | 157.5 ± 12.5 s | ≤ 90 min | 170.9 ± 28.0 s | 110.5 ± 18.0 s | completely protected mice from death | few microemboli | no effect | 71.2 (n = 2) %
